Test results as given in patent US12357711B2, “PSMA binding dual mode radiotracer and therapeutic” (Technische Universität München, priority 2019, dated 2025).
Values joined by “and” are separate entries in the source; they are usually repeats but may differ in a detail not shown here. Equal values may be shown once.

Assays:
human serum albumin = molecular target: T1, human serum albumin (Homo sapiens, UniProt P02768); test: HSA binding on Chiralpak HSA column; format: in vitro ADME; conditions: Chiralpak HSA column (50 × 3 mm, 5 μm)
T1 construct: purchased H13H-2433
T1 sequence (P02768 25-609): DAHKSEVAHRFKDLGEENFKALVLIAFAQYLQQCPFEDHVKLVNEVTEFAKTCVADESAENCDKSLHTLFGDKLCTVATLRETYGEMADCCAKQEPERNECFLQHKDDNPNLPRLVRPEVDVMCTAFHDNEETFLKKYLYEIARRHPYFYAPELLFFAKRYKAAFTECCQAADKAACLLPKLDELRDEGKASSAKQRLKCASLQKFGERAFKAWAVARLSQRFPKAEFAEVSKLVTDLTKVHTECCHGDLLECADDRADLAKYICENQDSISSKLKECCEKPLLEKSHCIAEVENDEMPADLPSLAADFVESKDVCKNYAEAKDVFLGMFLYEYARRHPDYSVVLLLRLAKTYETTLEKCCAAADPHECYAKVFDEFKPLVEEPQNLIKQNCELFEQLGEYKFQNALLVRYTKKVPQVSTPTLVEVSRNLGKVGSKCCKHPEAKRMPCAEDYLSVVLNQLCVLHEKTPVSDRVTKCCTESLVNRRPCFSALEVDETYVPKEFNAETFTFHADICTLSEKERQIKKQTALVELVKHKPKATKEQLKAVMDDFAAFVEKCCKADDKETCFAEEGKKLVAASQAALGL
Description: The mobile phase (A: NH4OAc, 50 mM in water, pH 7 and B: isopropanol) was freshly prepared for each experiment and only used for one day. The column was kept at room temperature and each run was stopped after detection of the signal to reduce the acquisition time. All substances were dissolved in a 0.5 mg/ml concentration in 50% 2-propanol and 50% 50 mM pH 6.9 ammonium acetate buffer. […] All nine reference substances were injected consecutively to establish a non-linear regression with Origin Pro 2016G.

patients = test: Human biodistribution and uptake in tumor lesions (PET/CT, SUV); format: in vivo; conditions: for SUVmax background, max / SUVmax background, mean / SUVmax background, min / SUVmean background, max / SUVmean background, mean / SUVmean background, min: gluteal muscle; for SUVmax bone, max / SUVmax bone, mean / SUVmax bone, min / SUVmean bone, max / SUVmean bone, mean / SUVmean bone, min: non-diseased bone; for ratio SUVmax to background, mean / ratio SUVmean to background, mean: human PET/CT, background gluteal muscle
Description: Human biodistribution was estimated by analysing clinical ^18F-rhPSMA-7- and ^18F-rhPSMA-7.3-PET/CT exams in 47 and 32 patients, respectively.
The mean and maximum standardized uptake values (SUVmean/SUVmax) were determined for background (gluteal muscle), normal organs (salivary glands, blood pool, lung, liver, spleen, pancreas, duodenum, kidney, bladder, bone) and three representative tumor lesions. Tumor uptake was analyzed in 89 lesions (26 primary tumors/local recurrences, 23 bone, 38 lymph node and 2 visceral metastases) and 63 lesions (14 primary tumors/local recurrences, 30 bone, 18 lymph node and 1 visceral metastases) for ^18F-rhPSMA-7 and ^18F-rhPSMA-7.3, respectively.
Organ-background and Tumor-background ratios were calculated.

[1] = clinical PET/CT, listed as 18F-rhPSMA-7.3

Compound: [^19F][^natGa]D/L-Dap-R/S-DOTAGA-rhPSMA7 [rhPSMA7-rac]
- HSA Binding (human serum albumin): 96.7%
- SUVmax bladder, max (patients; clinical PET/CT): 112.0
- SUVmax bladder, mean (patients; clinical PET/CT): 8.5
- SUVmax bladder, min (patients; clinical PET/CT): 0.5
- SUVmax bloodpool, max (patients; clinical PET/CT): 3.9
- SUVmax bloodpool, mean (patients; clinical PET/CT): 2.4
- SUVmax bloodpool, min (patients; clinical PET/CT): 1.6
- SUVmax duodenum, max (patients; clinical PET/CT): 32.7
- SUVmax duodenum, mean (patients; clinical PET/CT): 14.8
- SUVmax duodenum, min (patients; clinical PET/CT): 2.8
- SUVmax kidney, max (patients; clinical PET/CT): 75.2
- SUVmax kidney, mean (patients; clinical PET/CT): 44.8
- SUVmax kidney, min (patients; clinical PET/CT): 19.1
- SUVmax liver, max (patients; clinical PET/CT): 25.2
- SUVmax liver, mean (patients; clinical PET/CT): 9.5
- SUVmax liver, min (patients; clinical PET/CT): 4.5
- SUVmax lungs, max (patients; clinical PET/CT): 3.1
- SUVmax lungs, mean (patients; clinical PET/CT): 1.1
- SUVmax lungs, min (patients; clinical PET/CT): 0.5
- SUVmax pancreas, max (patients; clinical PET/CT): 7.9
- SUVmax pancreas, mean (patients; clinical PET/CT): 3.7
- SUVmax pancreas, min (patients; clinical PET/CT): 1.8
- SUVmax parotic gland, max (patients; clinical PET/CT): 42.3
- SUVmax parotic gland, mean (patients; clinical PET/CT): 23.8
- SUVmax parotic gland, min (patients; clinical PET/CT): 8.2
- SUVmax spleen, max (patients; clinical PET/CT): 21.0
- SUVmax spleen, mean (patients; clinical PET/CT): 11.8
- SUVmax spleen, min (patients; clinical PET/CT): 4.7
- SUVmax submandibular gland, max (patients; clinical PET/CT): 43.8
- SUVmax submandibular gland, mean (patients; clinical PET/CT): 27.0
- SUVmax submandibular gland, min (patients; clinical PET/CT): 10.1
- SUVmean bladder, max (patients; clinical PET/CT): 85.7
- SUVmean bladder, min (patients; clinical PET/CT): 0.3
- SUVmean bloodpool, max (patients; clinical PET/CT): 17.0
- SUVmean bloodpool, mean (patients; clinical PET/CT): 2.0
- SUVmean bloodpool, min (patients; clinical PET/CT): 1.1
- SUVmean duodenum, max (patients; clinical PET/CT): 23.9
- SUVmean duodenum, mean (patients; clinical PET/CT): 10.9
- SUVmean duodenum, min (patients; clinical PET/CT): 1.9
- SUVmean kidney, max (patients; clinical PET/CT): 54.7
- SUVmean kidney, mean (patients; clinical PET/CT): 32.4
- SUVmean kidney, min (patients; clinical PET/CT): 13.2
- SUVmean liver, max (patients; clinical PET/CT): 17.7
- SUVmean liver, mean (patients; clinical PET/CT): 7.0
- SUVmean liver, min (patients; clinical PET/CT): 3.2
- SUVmean lungs, max (patients; clinical PET/CT): 2.0
- SUVmean lungs, mean (patients; clinical PET/CT): 0.7
- SUVmean lungs, min (patients; clinical PET/CT): 0.3
- SUVmean pancreas, max (patients; clinical PET/CT): 5.5
- SUVmean pancreas, mean (patients; clinical PET/CT): 2.5
- SUVmean pancreas, min (patients; clinical PET/CT): 1.3
- SUVmean parotic gland, max (patients; clinical PET/CT): 32.7
- SUVmean parotic gland, mean (patients; clinical PET/CT): 16.9
- SUVmean parotic gland, min (patients; clinical PET/CT): 5.5
- SUVmean spleen, max (patients; clinical PET/CT): 17.1
- SUVmean spleen, mean (patients; clinical PET/CT): 9.1
- SUVmean spleen, min (patients; clinical PET/CT): 3.4
- SUVmean submandibular gland, max (patients; clinical PET/CT): 29.7
- SUVmean submandibular gland, mean (patients; clinical PET/CT): 19.6
- SUVmean submandibular gland, min (patients; clinical PET/CT): 7.0
- SUVmax background, max (patients; clinical PET/CT): 1.8
- SUVmax background, mean (patients; clinical PET/CT): 1.0
- SUVmax background, min (patients; clinical PET/CT): 0.6
- SUVmean background, max (patients; clinical PET/CT): 1.2
- SUVmean background, mean (patients; clinical PET/CT): 0.6
- SUVmean background, min (patients; clinical PET/CT): 0.4
- SUVmax bone, max (patients; clinical PET/CT): 3.1
- SUVmax bone, mean (patients; clinical PET/CT): 1.7
- SUVmax bone, min (patients; clinical PET/CT): 0.8
- SUVmean bone, max (patients; clinical PET/CT): 2.1
- SUVmean bone, mean (patients; clinical PET/CT): 1.1
- SUVmean bone, min (patients; clinical PET/CT): 0.6
- SUVmax tumor, max (patients; clinical PET/CT, tumor lesions): 167.2
- SUVmax tumor, mean (patients; clinical PET/CT, tumor lesions): 27.6
- SUVmax tumor, min (patients; clinical PET/CT, tumor lesions): 3.1
- SUVmean tumor, max (patients; clinical PET/CT, tumor lesions): 115.7
- SUVmean tumor, min (patients; clinical PET/CT, tumor lesions): 2.1
- SUVmean tumor, mean (patients; clinical PET/CT, tumor lesions, listed as 18F-rhPSMA-7): 20.0±20.2 and 20.0
- SUVmean bladder, mean (patients; clinical PET/CT, listed as 18F-rhPSMA-7): 6.3

Compound: CC(C)(C)[Si](F)(c1ccc(C(=O)NC[C@@H](NC(=O)CC[C@@H](C(=O)O)N2CCN(CC(=O)[O-])CCN(CC(=O)[O-])CCN(CC(=O)[O-])CC2)C(=O)N[C@H](CCCCNC(=O)CCC(=O)NCCC[C@@H](NC(=O)CC[C@H](NC(=O)N[C@@H](CCC(=O)O)C(=O)O)C(=O)O)C(=O)O)C(=O)O)cc1)C(C)(C)C.[Ga+3] [rhPSMA7.3, [^19F][^natGa]D-Dap-S-DOTAGA-rhPSMA7]
- HSA Binding (human serum albumin): 96.9%
- ratio SUVmax to background, mean (patients; bladder): 3.1
- ratio SUVmean to background, mean (patients; bladder): 3.1
- ratio SUVmax to background, mean (patients; bloodpool): 2.8
- ratio SUVmean to background, mean (patients; bloodpool): 2.9
- ratio SUVmax to background, mean (patients; bone): 2.0
- ratio SUVmean to background, mean (patients; bone): 2.1
- SUVmax bladder, max (patients; clinical PET/CT): 6.0
- SUVmax bladder, mean (patients; clinical PET/CT): 3.1
- SUVmax bladder, min (patients; clinical PET/CT): 1.1
- SUVmax bloodpool, max (patients; clinical PET/CT): 3.9
- SUVmax bloodpool, mean (patients; clinical PET/CT): 2.8
- SUVmax bloodpool, min (patients; clinical PET/CT): 1.9
- SUVmax duodenum, max (patients; clinical PET/CT): 32.2
- SUVmax duodenum, mean (patients; clinical PET/CT): 16.4
- SUVmax duodenum, min (patients; clinical PET/CT): 6.1
- SUVmax kidney, max (patients; clinical PET/CT): 99.9
- SUVmax kidney, mean (patients; clinical PET/CT): 51.9
- SUVmax kidney, min (patients; clinical PET/CT): 30.9
- SUVmax liver, max (patients; clinical PET/CT): 15.4
- SUVmax liver, mean (patients; clinical PET/CT): 9.7
- SUVmax liver, min (patients; clinical PET/CT): 4.6
- SUVmax lungs, max (patients; clinical PET/CT): 1.9
- SUVmax lungs, mean (patients; clinical PET/CT): 1.1
- SUVmax lungs, min (patients; clinical PET/CT): 0.7
- SUVmax pancreas, max (patients; clinical PET/CT): 7.8
- SUVmax pancreas, mean (patients; clinical PET/CT): 4.2
- SUVmax pancreas, min (patients; clinical PET/CT): 2.4
- SUVmax parotic gland, max (patients; clinical PET/CT): 38.3
- SUVmax parotic gland, mean (patients; clinical PET/CT): 24.6
- SUVmax parotic gland, min (patients; clinical PET/CT): 11.2
- SUVmax spleen, max (patients; clinical PET/CT): 22.5
- SUVmax spleen, mean (patients; clinical PET/CT): 11.4
- SUVmax spleen, min (patients; clinical PET/CT): 5.0
- SUVmax submandibular gland, max (patients; clinical PET/CT): 47.4
- SUVmax submandibular gland, mean (patients; clinical PET/CT): 28.4
- SUVmax submandibular gland, min (patients; clinical PET/CT): 14.6
- SUVmean bladder, max (patients; clinical PET/CT): 4.1
- SUVmean bladder, min (patients; clinical PET/CT): 0.7
- SUVmean bloodpool, max (patients; clinical PET/CT): 2.5
- SUVmean bloodpool, min (patients; clinical PET/CT): 1.3
- SUVmean duodenum, max (patients; clinical PET/CT): 23.0
- SUVmean duodenum, mean (patients; clinical PET/CT): 11.0
- SUVmean duodenum, min (patients; clinical PET/CT): 3.0
- SUVmean kidney, max (patients; clinical PET/CT): 70.6
- SUVmean kidney, mean (patients; clinical PET/CT): 35.5
- SUVmean kidney, min (patients; clinical PET/CT): 20.7
- SUVmean liver, max (patients; clinical PET/CT): 12.3
- SUVmean liver, mean (patients; clinical PET/CT): 7.3
- SUVmean liver, min (patients; clinical PET/CT): 3.2
- SUVmean lungs, max (patients; clinical PET/CT): 1.1
- SUVmean lungs, mean (patients; clinical PET/CT): 0.7
- SUVmean lungs, min (patients; clinical PET/CT): 0.4
- SUVmean pancreas, max (patients; clinical PET/CT): 5.2
- SUVmean pancreas, mean (patients; clinical PET/CT): 2.8
- SUVmean pancreas, min (patients; clinical PET/CT): 1.6
- SUVmean parotic gland, max (patients; clinical PET/CT): 25.0
- SUVmean parotic gland, mean (patients; clinical PET/CT): 16.0
- SUVmean parotic gland, min (patients; clinical PET/CT): 8.2
- SUVmean spleen, max (patients; clinical PET/CT): 17.9
- SUVmean spleen, mean (patients; clinical PET/CT): 8.5
- SUVmean spleen, min (patients; clinical PET/CT): 3.7
- SUVmean submandibular gland, max (patients; clinical PET/CT): 33.4
- SUVmean submandibular gland, mean (patients; clinical PET/CT): 19.6
- SUVmean submandibular gland, min (patients; clinical PET/CT): 10.4
- tracer retention in the bladder compared with ^18F-rhPSMA-7 (patients; clinical PET/CT): significantly lower
- uptake in tumor lesions compared with ^18F-rhPSMA-7 (patients; clinical PET/CT): significantly higher
- SUVmax background, max (patients; clinical PET/CT): 1.7
- SUVmax background, mean (patients; clinical PET/CT): 1.0
- SUVmax background, min (patients; clinical PET/CT): 0.6
- SUVmean background, max (patients; clinical PET/CT): 1.1
- SUVmean background, mean (patients; clinical PET/CT): 0.7
- SUVmean background, min (patients; clinical PET/CT): 0.4
- SUVmax bone, max (patients; clinical PET/CT): 3.4
- SUVmax bone, mean (patients; clinical PET/CT): 2.1
- SUVmax bone, min (patients; clinical PET/CT): 1.1
- SUVmean bone, max (patients; clinical PET/CT): 2.2
- SUVmean bone, mean (patients; clinical PET/CT): 1.3
- SUVmean bone, min (patients; clinical PET/CT): 0.7
- SUVmax tumor, max (patients; clinical PET/CT, tumor lesions): 316.0
- SUVmax tumor, mean (patients; clinical PET/CT, tumor lesions): 44.0
- SUVmax tumor, min (patients; clinical PET/CT, tumor lesions): 2.4
- SUVmean tumor, max (patients; clinical PET/CT, tumor lesions): 224.1
- SUVmean tumor, min (patients; clinical PET/CT, tumor lesions): 1.6
- SUVmean tumor, mean (patients; clinical PET/CT, tumor lesions, listed as 18F-rhPSMA-7.3): 32.5±42.7 and 32.5
- SUVmean bladder, mean (patients; [1]): 2.0 and 2.0±0.8
- SUVmean bloodpool, mean (patients; [1]): 1.9 and 1.8
- ratio SUVmax to background, mean (patients; duodenum): 16.2
- ratio SUVmean to background, mean (patients; duodenum): 17.1
- ratio SUVmax to background, mean (patients; kidney): 51.8
- ratio SUVmean to background, mean (patients; kidney): 55.6
- ratio SUVmax to background, mean (patients; liver): 9.7
- ratio SUVmean to background, mean (patients; liver): 11.4
- ratio SUVmax to background, mean (patients; lungs): 1.0
- ratio SUVmean to background, mean (patients; lungs): 1.0
- ratio SUVmax to background, mean (patients; pancreas): 4.1
- ratio SUVmean to background, mean (patients; pancreas): 4.4
- ratio SUVmax to background, mean (patients; parotid gland): 24.7
- ratio SUVmean to background, mean (patients; parotid gland): 25.2
- ratio SUVmax to background, mean (patients; spleen): 11.4
- ratio SUVmean to background, mean (patients; spleen): 13.3
- ratio SUVmax to background, mean (patients; submandibular gland): 28.2
- ratio SUVmean to background, mean (patients; submandibular gland): 30.6
- ratio SUVmax to background, mean (patients; tumor lesions): 43.6
- ratio SUVmean to background, mean (patients; tumor lesions): 50.8
